From ChEMBL document CHEMBL3832082, “DailyMed|setid=a9a12198-b016-42ae-b9dc-d98fead7b79e | CARVEDILOL- carvedilol tablet, film coated|REMEDYREPACK INC”

Columns and labels:
Homo sapiens = assay: (§1) Pharmacokinetic parameters for Carvedilol following oral administration of Carvedilol tablets.; format: ADME, organism-based; details: in vivo, po, dosed compound id 39, dosed compound name CARVEDILOL, tissue Plasma
[1] = as §1; format: ADME, organism-based; details: human, in vivo, dosed compound id 39, dosed compound name CARVEDILOL, tissue Plasma

- t1/2(app) (Homo sapiens; gender male and female): 7 to 11 h
- Vss (Homo sapiens): 115 L
- half-life ([1]; gender male and female, read-out: t1/2(app)): 5 to 9 h
- CL/F [1]: 500 to 700 mL/min
- bioavailability [1]: 25 to 35%
SMILES: COc1ccccc1OCCNCC(O)COc1cccc2[nH]c3ccccc3c12 (stereo not given) [CARVEDILOL]
